Experiment [1] deals with T1, PDK1 kinase (Homo sapiens, UniProt O15530).
T1 sequence (O15530 1-556): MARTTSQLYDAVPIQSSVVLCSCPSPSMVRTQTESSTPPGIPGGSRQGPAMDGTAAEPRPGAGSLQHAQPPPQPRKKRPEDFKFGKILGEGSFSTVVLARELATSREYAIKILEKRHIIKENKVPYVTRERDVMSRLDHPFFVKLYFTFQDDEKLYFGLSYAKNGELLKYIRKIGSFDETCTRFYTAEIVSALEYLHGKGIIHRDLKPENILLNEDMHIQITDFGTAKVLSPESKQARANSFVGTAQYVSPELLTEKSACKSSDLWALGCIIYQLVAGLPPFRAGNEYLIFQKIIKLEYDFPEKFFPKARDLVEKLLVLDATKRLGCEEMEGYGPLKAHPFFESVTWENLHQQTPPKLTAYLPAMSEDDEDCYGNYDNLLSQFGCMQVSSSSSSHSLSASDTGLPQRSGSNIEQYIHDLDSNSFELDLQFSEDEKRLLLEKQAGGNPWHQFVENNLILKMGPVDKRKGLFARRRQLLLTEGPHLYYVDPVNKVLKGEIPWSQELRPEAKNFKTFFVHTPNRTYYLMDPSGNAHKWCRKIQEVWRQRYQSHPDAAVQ
As to the kind of experiment: PDK1 Kinase Alpha Screen Assay. Conditions: read-out: PDK1 IC50. The experiment is classed as biochemical. In outline: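 Biotinylated PDK1-4 peptide (50 nM) phosphorylated by PDK1 with 10 uM ATP in pH 7.5 Tris/MgCl2/DTT buffer, 2.5% DMSO, for 3-18 hours. EDTA stop, then AlphaScreen detection with phospho-(Ser/Thr) PKA substrate antibody and protein A/streptavidin beads after overnight room-temperature development.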

Experiment [2] deals with A2780 cells. As to the kind of experiment: Cell Proliferation Assay (Cell Titer Glo), A2780. The experiment is classed as cell-based. Conditions: Homo sapiens, 72 h; A2780 cells, 3 days incubation; read-out: CPEC50 A2780. The gist of the method:
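Cells seeded at 1000/well, allowed to adhere 3-5 h, then exposed to DMSO-dissolved compounds for 3 days at 37° C., 5% CO2. Medium replaced before Cell Titer Glo addition; luminescence read after 10 min.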

Experiment [3] deals with pAkt308 (phosphorylation of Akt at T308) in PC-3 cells. As to the kind of experiment: pAkt T308 ECL Assay in PC-3 cells. It counts as cell-based. The conditions noted are these: Homo sapiens, 6 h, six hours with compound, read-out: PAKT308 PC3 IC50. The procedure: VI. The pAkt^T308 ECL Assay Protocol
On Day 1, PC-3 cells were seeded at 15,000 cells/well in 100 μL/well ([…]) growth media into black-walled, clear bottom, poly-L-lysine coated plates. The cells were incubated overnight in a 37° C., 5% CO2 incubator.
On Day 2, a MSD ECL plate was blocked for two hours with 150 μL per well of 3% MSD blocker A.
Test compounds were diluted to 500× in DMSO and then were subjected to further serial dilution using a BioMek 2000 instrument. DMSO diluted compounds were then diluted into growth media and then added to the cell plates.
The cell plates incubated with compounds for six hours in a 37° C., 5% CO2 incubator after which the growth medium was removed and 55 μl of MSD lysis buffer was added to cell plates on ice. The plates were lysed on ice for five minutes followed by 15 minutes of vigorous shaking on a plate shaker at 4° C. The blocked MSD assay plates were washed twice with 1×MSD wash buffer followed by the addition of cell lysate as follows: 30 μl of cell lysate was added to the pAkt308 plates and 13 μl of lysate+12 μl lysis buffer was added to the tAkt plates. The plates were then sealed and shaken at 4° C. overnight.
On Day 3, the MSD plates were washed four times with 1×MSD wash buffer then, 25 μl/well of MSD SULFO-TAG antibodies diluted to 10 nM final concentration in 1% blocker. A buffer was added to the antibody diluent which was added to assay plates. The plates were then sealed and incubated at RT for 1.5 hour. The plates were then washed twice with 1×MSD wash buffer followed by the addition of 150 μl/well of 1.5×MSD read buffer. The plates were read immediately after the addition of read buffer using a Trilux instrument. […]

Experiment [4] deals with PC-3 cells. As to the kind of experiment: Cell Proliferation Assay (Cell Titer Glo), PC-3 cell line. It counts as cell-based. The conditions noted are these: Homo sapiens, PC-3, 72 h, PC-3 cells, 3 days incubation; read-out: CP EC50 PC3. The gist of the method: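 PC-3 cells, 1000 cells/well, left to adhere 3-5 h, then exposed for 3 days at 37° C to compounds as 1:3 serial dilutions from 500× DMSO stocks diluted in growth medium. Medium then replaced with fresh medium and viability read by Cell Titer Glo luminescence.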
Background: ATP-based viability assays read luminescence as a measure of living cells.

Take `O=S(=O)(c1cccc(Nc2ncc3cccc(OC4CCNCC4)c3n2)c1)N1CCOCC1` [Compound 5, [3-(Morpholine-4-sulfonyl)-phenyl]-[8-(piperidin-4-yloxy)-quinazolin-2-yl]-amine]: the IC50 in experiment [1] was less than 5 µM; in experiment [3] it was 5 to 10 µM. In experiment [2], the EC50 is less than 5 µM.
Consider `NS(=O)(=O)c1ccc(Nc2ncc3ccc(-c4cccnc4)c(OC4CCNCC4)c3n2)cc1` [Compound 18, 4-[8-(Piperidin-4-yl-oxy)-7-pyridin-3-yl-quinazolin-2-ylamino]-benzenesulfonamide], for which the IC50 was less than 5 µM in experiment [1] and 5 to 10 µM in experiment [3]. The EC50 in experiment [2] is less than 5 µM.
Regarding `Nc1ccc(-c2ccc3cnc(Nc4ccc(S(N)(=O)=O)cc4)nc3c2OC2CCNCC2)cn1` [Compound 21, 4-[7-(6-Amino-pyridin-3-yl)-8-(piperidin-4-yloxy)-quinazolin-2-ylamino]-benzenesulfonamide], the results for the IC50 in experiment [1] and in experiment [3] were less than 5 µM and 5 to 10 µM, respectively. Moreover, the EC50 in experiment [2] is less than 5 µM.
`COc1cncc(-c2ccc3cnc(Nc4ccc(S(N)(=O)=O)cc4)nc3c2OC2CCNCC2)c1` [Compound 23, 4-[7-(5-Methoxy-pyridin-3-yl)-8-(piperidin-4-yloxy)-quinazolin-2-ylamino]-benzenesulfonamlde]: the IC50 in experiment [1] was less than 5 µM; in experiment [3] it was 5 to 10 µM. For the same compound, the EC50 in experiment [2] is less than 5 µM.
As for `NS(=O)(=O)c1ccc(Nc2ncc3ccc(-c4cn[nH]c4)c(OC4CCNCC4)c3n2)cc1` [Compound 24, 4-[8-(Piperidin-4-yloxy)-7-(1H-pyrazol-4-yl)-quinazolin-2-ylamino]-benzenesulfonamide], the IC50 was less than 5 µM in experiment [1] and 5 to 10 µM in experiment [3]. The EC50 in experiment [2] is less than 5 µM.
As for `Cn1cc(-c2ccc3cnc(Nc4ccc(S(N)(=O)=O)cc4)nc3c2OC2CCNCC2)cn1` [Compound 25, 4-[7-(1-Methyl-1H-pyrazol-4-yl)-8-(piperidin-4-yloxy)-quinazolin-2-ylamino]-benzenesulfonamide], the IC50 is less than 5 µM in experiment [1] and 5 to 10 µM in experiment [3]. The EC50 in experiment [2] was less than 5 µM.
Take `NS(=O)(=O)c1ccc(Nc2ncc3ccc(-c4ncco4)c(OC4CCNCC4)c3n2)cc1` [Compound 26, 4-[7-Oxazol-2-yl-8-(piperidin-4-yloxy)-quinazolin-2-ylamino]-benzenesulfonamide]: the values for the IC50 in experiment [1] and in experiment [3] were less than 5 µM and 5 to 10 µM, respectively. The EC50 in experiment [2] is less than 5 µM.
On to `NS(=O)(=O)c1ccc(Nc2ncc3ccc(-c4nccs4)c(OC4CCNCC4)c3n2)cc1` [Compound 27, 4-[8-(Piperidin-4-yloxy)-7-thiazol-2-yl-quinazolin-2-ylamino]-benzenesulfonamide], for which the IC50 in experiment [1] and in experiment [3] was less than 5 µM in each case. The EC50 in experiment [2] was less than 5 µM.
For the compound `NS(=O)(=O)c1ccc(Nc2ncc3ccc(-c4ccccn4)c(OC4CCNCC4)c3n2)cc1` [Compound 28, 4-[8-(Piperidin-4-yloxy)-7-pyridin-2-yl-quinazolin-2-ylamino]-benzenesulfonamide], the results for the 50% inhibitory concentration (IC50) in experiment [1] and in experiment [3] were less than 5 µM and 5 to 10 µM, respectively. Besides, in experiment [2], the EC50 is less than 5 µM.
Consider `CN1CCC(Oc2cccc3cnc(Nc4ccc(S(N)(=O)=O)cc4)nc23)CC1` [Compound 35, 4-[8-(1-Methyl-piperidin-4-yloxy)-quinazolin-2-ylamino]-benzenesulfonamide], for which the IC50 in experiment [1] and in experiment [3] was less than 5 µM in each case. Also, the EC50 in experiment [2] is less than 5 µM.
For `NS(=O)(=O)c1ccc(Nc2ncc3cccc(O[C@@H]4CCNC4)c3n2)cc1` [Compound 37, 4-[8-((R)-Pyrrolidin-3-yloxy)-quinazolin-2-ylamino]-benzenesulfonamide], the IC50 in experiment [1] was less than 5 µM; in experiment [3] it was 5 to 10 µM. For the same compound, in experiment [2], the EC50 is less than 5 µM.
On to `CNS(=O)(=O)Cc1ccc(Nc2ncc3ccc(OC4CCN(C(C)C)CC4)cc3n2)cc1` [Compound 61, C-{4-[7-(1-Isopropyl-piperidin-4-yloxy)-quinazolin-2-ylamino]-phenyl}-N-methyl-methanesulfonamide], for which the IC50 in experiment [1] and in experiment [3] was less than 5 µM each time. The EC50 in experiment [4] was less than 5 µM.
As to `CC(=O)Nc1ccc(Nc2ncc3ccc(OC4CCNCC4)cc3n2)cc1C` [Compound 63, N-{2-Methyl-4-[7-(piperidin-4-yloxy)-quinazolin-2-ylamino]-phenyl}-acetamide], the IC50 in experiment [1] and in experiment [3] was less than 5 µM in each case. The EC50 in experiment [4] is less than 5 µM.
Regarding `Nc1ncc(-c2ccc3cnc(Nc4ccc(S(N)(=O)=O)cc4)nc3c2OC2CCNCC2)cc1C(F)(F)F` [Compound 68, 4-[7-(6-Amino-5-trifluoromethyl-pyridin-3-yl)-8-(piperidin-4-yloxy)-quinazolin-2-ylamino]-benzenesulfonamide], the IC50 in experiment [1] was less than 5 µM; in experiment [3], 5 to 10 µM. In experiment [4], the EC50 was less than 5 µM.
As for `CNC(=O)Cc1ccc(Nc2ncc3cccc(OC4CCN(C(C)C)CC4)c3n2)cc1` [Compound 70, 2-{4-[8-(1-Isopropyl-piperidin-4-yloxy)-quinazolin-2-ylamino]-phenyl}-N-methyl-acetamide], the IC50 in experiment [1] was less than 5 µM; in experiment [3] it was 10 to 25 µM. Moreover, the EC50 in experiment [4] was less than 5 µM.
Consider `CC(C)NC(=O)Cc1ccc(Nc2ncc3cccc(OC4CCN(C(C)C)CC4)c3n2)cc1` [Compound 71, N-Isopropyl-2-{4-[8-(1-isopropyl-piperidin-4-yloxy)-quinazolin-2-ylamino]-phenyl}-acetamide], for which the results for the concentration for half-maximal inhibition (IC50) in experiment [1] and in experiment [3] were less than 5 µM and 5 to 10 µM, respectively. Besides, the EC50 in experiment [4] is less than 5 µM.
Regarding `CC(C)N1CCC(Oc2cccc3cnc(Nc4ccc(N5CCOCC5)cc4)nc23)CC1` [Compound 72, [8-(1-Isopropyl-piperidin-4-yloxy)-quinazolin-2-yl]-(4-morpholin-4-yl-phenyl)-amine], the IC50 in experiment [1] and in experiment [3] was less than 5 µM in each case. Besides, in experiment [4], the EC50 is less than 5 µM.
Consider `CC(=O)Nc1ccc(Nc2ncc3cccc(OC4CCN(C(C)C)CC4)c3n2)cc1` [Compound 73, N-{4-[8-(1-Isopropyl-piperidin-4-yloxy)-quinazolin-2-ylamino]-phenyl}-acetamide], for which the IC50 in experiment [1] is less than 5 µM; in experiment [3], 5 to 10 µM. Also, the EC50 in experiment [4] is less than 5 µM.
As to `CNC(=O)Cc1cccc(Nc2ncc3cccc(OC4CCN(C(C)C)CC4)c3n2)c1` [Compound 77, 2-{3-[8-(1-Isopropyl-piperidin-4-yloxy)-quinazolin-2-ylamino]-phenyl}-N-methyl-acetamide], the IC50 in experiment [1] and in experiment [3] was less than 5 µM each time. In experiment [4], the EC50 is less than 5 µM.
Take `CC(=O)Nc1cccc(Nc2ncc3cccc(OC4CCN(C(C)C)CC4)c3n2)c1` [Compound 81]: the IC50 in experiment [1] and in experiment [3] was less than 5 µM throughout. The EC50 in experiment [4] is less than 5 µM.
As for `C#Cc1cc(OC2CCN(C(C)C)CC2)c2nc(Nc3ccc(S(N)(=O)=O)cc3)ncc2c1` [Compound 86, 4-[6-Ethynyl-8-(1-isopropyl-piperidin-4-yloxy)-quinazolin-2-ylamino]-benzenesulfonamide], the IC50 in experiment [1] and in experiment [3] was less than 5 µM throughout. Also, in experiment [4], the EC50 was less than 5 µM.

For orientation: IC50 means the concentration needed to halve the response being measured.

The values are drawn from patent US7932262B2 (Novartis AG, priority 2006, dated 2011).
